The results in this text go back to BindingDB's records for doi:10.1021/acs.jmedchem.0c00377 (Huazhong University of Science and Technology, 2020).

Test [1] is described as follows: Binding affinity to recombinant TNFalpha (unknown origin) expressed in Escherichia coli BL21 (DE3) assessed as Kd for TNF-alpha-TNFR1 binding at 10 uM pe-incubated for 15 mins before TNFR1 addition and measured after 15 mins by MST assay (Rvb = 0.23 uM).
The nature of test [2]: Binding affinity to recombinant TNFalpha (unknown origin) expressed in Escherichia coli BL21 (DE3) assessed as Kd for TNF-alpha-TNFR1 binding at 100 uM pe-incubated for 15 mins before TNFR1 addition and measured after 15 mins by MST assay (Rvb = 0.23 uM).

The structures appear in SMILES notation.

As to `O=C1C[C@H](Nc2ncnc3[nH]cnc23)CN1Cc1ccccc1`, the equilibrium dissociation constant (Kd) worked out at 4.26 µM in test [1] and 19.6 µM in test [2].
